{"source": "patent US20020156010A1", "about": "(priority 2000, published 2002)", "key": {"[1]": {"test": "Fasting leptin and IGF-1 (RIA), octreotide-LAR 24 weeks", "format": "in vivo, human", "conditions": "Week 24-Week 0; High Responders (n = 8)"}, "[2]": {"test_system": "early phase of insulin secretion", "conditions": "dose-dependent; cited from earlier work"}, "[3]": {"conditions": "children with obesity secondary to cranial insult and insulin hypersecretion; cited from earlier work"}, "[4]": {"conditions": "long-term usage, acromegaly or other disorders; cited from earlier work"}, "[5]": {"molecular_target": "somatostatin receptor-5 (SSTR5) (Homo sapiens, UniProt P35346)", "sequence (P35346 whole entry, species assumed)": "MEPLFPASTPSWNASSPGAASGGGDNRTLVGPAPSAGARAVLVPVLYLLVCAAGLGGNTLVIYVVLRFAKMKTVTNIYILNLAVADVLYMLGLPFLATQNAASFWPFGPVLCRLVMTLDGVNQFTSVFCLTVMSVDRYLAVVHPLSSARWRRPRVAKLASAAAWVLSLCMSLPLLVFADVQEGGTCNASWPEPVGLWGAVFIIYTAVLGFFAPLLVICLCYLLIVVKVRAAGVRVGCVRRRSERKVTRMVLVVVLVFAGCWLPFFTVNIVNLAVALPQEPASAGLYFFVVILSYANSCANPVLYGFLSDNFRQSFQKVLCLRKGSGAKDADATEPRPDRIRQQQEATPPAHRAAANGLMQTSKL", "conditions": "on the β-cell; cited from earlier work"}, "[6]": {"test": "Safety: blood pressure, glucose (FBG, CBG, HbA1c, IGT), TSH, free T4, lipids, adverse events, octreotide-LAR 24 weeks", "description": "Inclusion criteria were ages 18-65 years and body mass index (BMI)≧35. The screening evaluation included a complete history and physical examination, and the following studies: Comprehensive Metabolic Panel (CMP), serum glucose 2 hours after an 75 gm oral glucose load, gallbladder ultrasound, and urine pregnancy test (if female). Exclusion criteria included gallstones, hypertension, diabetes mellitus (by ADA criteria), renal or liver disease, or use of chronic medications except for thyroid or estrogen supplementation. Subjects were evaluated every four weeks for 24 weeks. […]\nChemical Analyses: Serum glucose during OGTT was measured by the glucose oxidase method (Kadish, et al., “A new and rapid method for the determination of glucose by measurement of rate of oxygen consumption,” Clin Chem, 14:116-119 (1968), which is hereby incorporated by reference in its entirety). Serum immunoreactive insulin (μU/ml) and C-peptide (ng/ml) levels from each OGTT sample were measured by standard double-antibody radioimmunoassay (RIA) (Linco Research; St Louis, Mo.). Leptin was measured by double antibody RIA, and IGF-1 by competitive binding RIA (Endocrine Sciences; Calabasas Hills, Calif.). […]"}}, "data": [{"substance": "D-phenylalanyl-L-cysteinyl-L-phenylalanyl-D-tryptophyl-L-lysyl-L-threonyl-N-[2-hydroxy-1(hydroxymethyl)propyl]-L-cysteinamide cyclic (2=>7)-disulfide [octreotide]", "values": [{"measurement": "Δ IGF-1", "setting": "[1]", "value": "least suppression"}, {"measurement": "Early phase of insulin secretion", "setting": "[2]", "value": "inhibit"}, {"measurement": "Weight", "setting": "[3]", "value": "promotes weight loss"}, {"measurement": "Weight and fat mass", "setting": "[4]", "value": "minimal positive effect"}, {"measurement": "Binding to somatostatin receptor-5 (SSTR5)", "setting": "[5]", "value": "binds"}, {"measurement": "HR subjects demonstrating IGT", "setting": "[6]; at Week 0 and at Week 24", "value": "none"}, {"measurement": "Percent of subjects with IGT", "setting": "[6]; end of the study (32% before treatment)", "value": 73, "unit": "%"}]}]}
